Assays:
Assay type in all cases: functional
[1] = target: T1, Calcium-dependent protein kinase 4 (Plasmodium falciparum (isolate 3D7), UniProt Q8IBS5); assay: MMV: CDPK4 Protein kinase inhibition assay using recombinant PfCDPK4, syntide2 peptide substrate, ATP and KinaseGlo to measure % inhibition at 1 uM MMV box compound.
T1 sequence (Q8IBS5 whole entry): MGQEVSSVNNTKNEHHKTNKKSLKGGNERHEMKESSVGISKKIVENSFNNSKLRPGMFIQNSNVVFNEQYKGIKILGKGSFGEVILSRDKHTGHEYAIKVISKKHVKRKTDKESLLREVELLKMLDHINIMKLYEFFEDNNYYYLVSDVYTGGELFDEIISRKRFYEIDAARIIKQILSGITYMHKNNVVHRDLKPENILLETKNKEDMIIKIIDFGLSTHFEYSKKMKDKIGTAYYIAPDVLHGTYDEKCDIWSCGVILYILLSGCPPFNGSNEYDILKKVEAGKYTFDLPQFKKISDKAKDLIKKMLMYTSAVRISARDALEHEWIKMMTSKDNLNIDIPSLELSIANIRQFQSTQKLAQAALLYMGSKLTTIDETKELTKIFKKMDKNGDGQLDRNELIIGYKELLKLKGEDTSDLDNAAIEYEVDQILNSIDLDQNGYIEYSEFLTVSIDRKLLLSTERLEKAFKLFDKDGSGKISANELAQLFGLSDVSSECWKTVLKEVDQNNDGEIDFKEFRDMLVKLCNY

Proline--tRNA ligase = target: T2, Proline--tRNA ligase (Plasmodium falciparum (isolate 3D7), UniProt Q8I5R7); assay: MMV: ProRS recombinant Plasmodium falciparum Prolyl-tRNA-synthetase, assay with yeast tRNA, ATP, and proline and 3 uM MMV malaria box compound, assay read out with kinase glo as % inhibition.
T2 sequence (Q8I5R7 whole entry): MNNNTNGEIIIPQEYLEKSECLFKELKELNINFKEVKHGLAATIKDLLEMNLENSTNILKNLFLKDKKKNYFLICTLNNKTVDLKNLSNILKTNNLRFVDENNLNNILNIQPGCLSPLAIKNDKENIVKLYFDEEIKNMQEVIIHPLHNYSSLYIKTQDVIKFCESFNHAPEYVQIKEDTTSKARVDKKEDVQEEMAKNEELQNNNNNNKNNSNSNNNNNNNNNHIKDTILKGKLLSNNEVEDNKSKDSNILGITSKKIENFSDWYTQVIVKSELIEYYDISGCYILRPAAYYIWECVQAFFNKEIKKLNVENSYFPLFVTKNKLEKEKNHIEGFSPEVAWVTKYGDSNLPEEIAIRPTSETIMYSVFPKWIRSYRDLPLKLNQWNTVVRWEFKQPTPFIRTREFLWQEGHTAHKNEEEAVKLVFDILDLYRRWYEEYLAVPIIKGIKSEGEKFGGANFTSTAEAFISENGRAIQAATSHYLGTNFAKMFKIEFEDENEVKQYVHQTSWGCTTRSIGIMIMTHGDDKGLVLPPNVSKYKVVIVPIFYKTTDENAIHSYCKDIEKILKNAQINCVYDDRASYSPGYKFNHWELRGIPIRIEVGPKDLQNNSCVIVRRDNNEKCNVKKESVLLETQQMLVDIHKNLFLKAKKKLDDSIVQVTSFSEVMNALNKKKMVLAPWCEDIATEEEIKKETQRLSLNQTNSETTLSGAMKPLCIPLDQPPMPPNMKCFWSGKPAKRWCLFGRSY

[2] = target: T3, Cdk-related protein kinase 6 (Plasmodium falciparum, UniProt O77239); assay: Final concentrations were 1.5 uM ATP, 5 mM MnCl2, and 15 ug/ml PK6 in a buffer of 100 mM Tris-HCl (pH 7.5). 50 ug/mL MBP was provided as the substrate; 10 uM staurosporine was used as a control inhibitor. Incubation time was 3 hours and 40 minutes.The catalytic activity of each kinase was considered proportional to ATP consumed, as determined from measurements of residual [ATP] with the luciferase-based reagent Kinase-Glo (Promega) following incubation. Luminescence (proportional to residual [ATP]) was measured on the plate readers FLx800 (BioTek Instruments, Winooski, VT, USA) and MicroBeta2.
T3 sequence (O77239 whole entry): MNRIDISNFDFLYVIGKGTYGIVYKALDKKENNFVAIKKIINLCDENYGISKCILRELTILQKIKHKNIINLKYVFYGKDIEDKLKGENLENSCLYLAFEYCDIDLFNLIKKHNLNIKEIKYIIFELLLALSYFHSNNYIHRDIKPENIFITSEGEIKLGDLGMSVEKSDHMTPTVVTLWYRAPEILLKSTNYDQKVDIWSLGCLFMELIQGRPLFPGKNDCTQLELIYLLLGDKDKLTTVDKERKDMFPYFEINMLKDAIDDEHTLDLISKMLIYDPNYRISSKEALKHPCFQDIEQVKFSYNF

[3] = target: T4, Putative uncharacterized protein pk7 (Plasmodium falciparum, UniProt O96214); assay: Final concentrations were 1 uM ATP, 2 mM DTT, 20 mM MgCl2, 2 mM MnCl2, 0.01% BSA, and 6 ug/ml PK7, in a buffer of 20 mM Tris-HCl (pH 7.5). The enzyme itself was the only substrate present (since autophosphorylation occurs); 100 uM 1NA-PP1 was used as a control inhibitor. Incubation time was 3 hours.
T4 sequence (O96214 whole entry): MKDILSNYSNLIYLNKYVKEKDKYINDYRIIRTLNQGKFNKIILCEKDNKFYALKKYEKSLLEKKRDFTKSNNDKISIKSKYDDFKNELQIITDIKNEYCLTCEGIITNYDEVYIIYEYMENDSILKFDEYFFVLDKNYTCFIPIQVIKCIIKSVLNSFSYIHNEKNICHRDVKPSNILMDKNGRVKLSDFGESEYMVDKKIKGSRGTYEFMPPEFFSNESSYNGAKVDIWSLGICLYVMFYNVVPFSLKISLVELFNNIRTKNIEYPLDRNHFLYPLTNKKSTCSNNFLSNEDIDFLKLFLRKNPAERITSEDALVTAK

Lysine--tRNA ligase = Lysine--tRNA ligase (Plasmodium falciparum (isolate 3D7), UniProt Q8IDJ8); assay: MMV: KRS recombinant Plasmodium falciparum Lysyl-tRNA-synthetase, assay with yeast tRNA, ATP, and lysine and 3 uM MMV malaria box compound, assay read out with kinase glo as % inhibition.
Sequence of Lysine--tRNA ligase (Q8IDJ8 whole entry): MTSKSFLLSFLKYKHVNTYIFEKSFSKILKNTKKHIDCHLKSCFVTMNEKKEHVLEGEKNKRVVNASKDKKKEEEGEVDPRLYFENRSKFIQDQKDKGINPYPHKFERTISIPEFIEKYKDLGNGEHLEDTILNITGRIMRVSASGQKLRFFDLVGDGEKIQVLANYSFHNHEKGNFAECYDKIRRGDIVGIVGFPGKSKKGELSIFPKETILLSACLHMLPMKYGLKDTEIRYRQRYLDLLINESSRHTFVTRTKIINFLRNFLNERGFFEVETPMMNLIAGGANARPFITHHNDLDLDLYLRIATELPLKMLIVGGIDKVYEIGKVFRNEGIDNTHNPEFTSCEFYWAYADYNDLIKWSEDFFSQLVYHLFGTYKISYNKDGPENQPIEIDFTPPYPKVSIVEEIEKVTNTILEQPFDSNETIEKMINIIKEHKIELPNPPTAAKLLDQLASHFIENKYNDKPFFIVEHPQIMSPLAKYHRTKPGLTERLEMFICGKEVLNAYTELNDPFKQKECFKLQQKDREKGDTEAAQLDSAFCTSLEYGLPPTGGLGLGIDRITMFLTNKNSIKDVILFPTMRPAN

[4] = target: Calcium-dependent protein kinase 1 (Plasmodium falciparum, UniProt P62344); assay: MMV: CDPK1 Protein kinase inhibition assay using recombinant PfCDPK1, syntide 2 peptide substrate, ATP and KinaseGlo to measure % inhibition at 1 uM MMV box compound.
Sequence of Calcium-dependent protein kinase 1 (P62344 whole entry): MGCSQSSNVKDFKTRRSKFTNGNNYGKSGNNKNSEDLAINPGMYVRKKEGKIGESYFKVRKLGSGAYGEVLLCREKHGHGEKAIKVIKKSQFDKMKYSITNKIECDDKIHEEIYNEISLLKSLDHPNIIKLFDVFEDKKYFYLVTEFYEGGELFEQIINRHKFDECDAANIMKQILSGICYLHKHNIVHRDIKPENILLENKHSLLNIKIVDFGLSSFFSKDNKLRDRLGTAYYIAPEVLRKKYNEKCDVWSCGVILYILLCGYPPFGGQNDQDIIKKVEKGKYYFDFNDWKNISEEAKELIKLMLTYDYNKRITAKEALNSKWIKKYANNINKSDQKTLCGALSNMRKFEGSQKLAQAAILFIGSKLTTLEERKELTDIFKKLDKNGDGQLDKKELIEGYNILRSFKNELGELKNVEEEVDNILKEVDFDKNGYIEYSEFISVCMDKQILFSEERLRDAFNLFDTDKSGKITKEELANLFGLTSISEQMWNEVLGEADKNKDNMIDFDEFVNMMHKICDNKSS

[5] = target: T5, Mitogen-activated protein kinase (Plasmodium falciparum, UniProt Q25917); assay: Final concentrations were 1 uM ATP, 0.5 mM DTT, 1 mM MgCl2, 0.5 mg/mL BSA, and 10 ug/ml MAP2 in a buffer of 50 mM HEPES (pH 7.0). 0.5 mg/mL histone III-S served as the substrate (13); 100 uM AMP-PNP, an ATP analog, was used as a control inhibitor. Incubation time was 4 hours.
T5 sequence (Q25917 whole entry): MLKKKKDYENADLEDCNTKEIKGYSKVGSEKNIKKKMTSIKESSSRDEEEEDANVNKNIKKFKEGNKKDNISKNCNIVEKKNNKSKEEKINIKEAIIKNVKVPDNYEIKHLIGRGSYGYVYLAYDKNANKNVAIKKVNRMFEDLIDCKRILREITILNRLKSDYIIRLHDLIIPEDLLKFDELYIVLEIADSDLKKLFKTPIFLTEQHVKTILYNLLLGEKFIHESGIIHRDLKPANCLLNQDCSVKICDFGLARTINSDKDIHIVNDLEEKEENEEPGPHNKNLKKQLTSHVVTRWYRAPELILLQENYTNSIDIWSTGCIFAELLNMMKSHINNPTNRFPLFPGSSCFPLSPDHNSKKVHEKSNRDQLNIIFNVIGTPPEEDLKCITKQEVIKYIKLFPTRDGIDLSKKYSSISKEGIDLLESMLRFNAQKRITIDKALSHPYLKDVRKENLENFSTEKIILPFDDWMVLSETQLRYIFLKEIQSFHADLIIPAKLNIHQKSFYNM

Row | SMILES | IC50 [1] [nM] | IC50 (Proline--tRNA ligase) [nM] | IC50 [2] [nM] | IC50 [3] [nM] | IC50 (Lysine--tRNA ligase) [nM] | IC50 [4] [nM] | IC50 [5] [nM]
1 | CCOC(=O)C1=C(C)N=c2sc(=Cc3ccccc3O)c(=O)n2C1c1ccc(OC)c2ccccc12 (stereo not given) | > 1000 | > 2500 | > 1000 | > 1000 | > 2500 | > 1000 | > 1000
2 | c1ccc2c(NCCCCCCNc3c4c(nc5ccccc35)CCCC4)c3c(nc2c1)CCCC3 | > 1000 | > 2500 | > 1000 | > 1000 | > 2500 | > 1000 | > 1000
3 | Nc1ccc(-c2nc3cc(Cc4ccc5[nH]c(-c6ccc(N)cc6)nc5c4)ccc3[nH]2)cc1 | > 1000 | > 2500 | > 1000 | > 1000 | > 2500 | > 1000 | > 1000
4 | CCCCOC(=O)c1ccc(Nc2cc(C)nc3ccc(OC)cc23)cc1 | > 1000 | > 2500 | > 1000 | > 1000 | > 2500 | > 1000 | > 1000
5 | O=c1cc(NC2CCN(CCCc3ccccc3)CC2)c2cc(Cl)ccc2o1 | > 1000 | > 2500 | > 1000 | > 1000 | > 2500 | > 1000 | > 1000
6 | COc1ccc(C2NCCc3c2[nH]c2ccccc32)cc1CN1CCN(c2ccc(F)cc2)CC1 (stereo not given) | > 1000 | > 2500 | > 1000 | > 1000 | > 2500 | > 1000 | > 1000
7 | CCOc1ccc(-n2cc(-c3ccccc3)c3c(SCc4cc(C)ccc4C)ncnc32)cc1 | > 1000 | > 2500 | > 1000 | > 1000 | > 2500 | > 1000 | > 1000
8 | Cc1ccc(C)c(Cn2c(N3CCC(C(=O)NCc4cccs4)CC3)nc3ccccc32)c1 | > 1000 | > 2500 | > 1000 | > 1000 | > 2500 | > 1000 | > 1000
9 | CC1CCN(Cc2c(O)ccc3cc(-c4nc5ccccc5s4)c(=O)oc23)CC1 | > 1000 | > 2500 | > 1000 | > 1000 | > 2500 | > 1000 | > 1000
10 | Cc1ccc2cc3c(N)c4c(C)ccc(C)c4nc3nc2c1 | > 1000 | > 2500 | > 1000 | > 1000 | > 2500 | > 1000 | > 1000
11 | COc1ccc(C2C(C(=O)Nc3cccc(OC)c3)c3ccccc3C(=O)N2C2CCCCC2)cc1 (stereo not given) | > 1000 | > 2500 | > 1000 | > 1000 | > 2500 | > 1000 | > 1000
12 | c1ccc2c(NCCc3c[nH]c4ccccc34)c3ccccc3nc2c1 | > 1000 | > 2500 | > 1000 | > 1000 | > 2500 | > 1000 | > 1000
13 | CCOC(=O)c1cnc2c(C)cccc2c1Nc1ccc(C(C)=O)cc1 | > 1000 | > 2500 | > 1000 | > 1000 | > 2500 | > 1000 | > 1000
14 | Cc1ccc(C2CC(C(F)(F)F)n3nc(C(=O)N4CCN(C(c5ccccc5)c5ccccc5)CC4)cc3N2)cc1 (stereo not given) | > 1000 | > 2500 | > 1000 | > 1000 | > 2500 | > 1000 | > 1000
15 | COc1cccc(C(=O)NC(c2ccc(C)cc2)c2cc(Cl)c3cccnc3c2O)c1 (stereo not given) | > 1000 | > 2500 | > 1000 | > 1000 | > 2500 | > 1000 | > 1000
16 | CCOc1ccc2c(c1)CN(Cc1ccc(Cl)cc1)CO2 | > 1000 | > 2500 | > 1000 | > 1000 | > 2500 | > 1000 | > 1000
17 | CCCc1c(C)nc2ccc(Br)cc2c1O | > 1000 | > 2500 | > 1000 | > 1000 | > 2500 | > 1000 | > 1000
18 | COc1ccc(CCNC(=O)c2cc(S(=O)(=O)N3CC(C)CC(C)C3)ccc2Sc2ccc(F)cc2)cc1OC (stereo not given) | > 1000 | > 2500 | > 1000 | > 1000 | > 2500 | > 1000 | > 1000
19 | CCOc1ccc(Nc2c3ccccc3nc3ccccc23)cc1 | > 1000 | > 2500 | > 1000 | > 1000 | > 2500 | > 1000 | > 1000
20 | COc1ccccc1N1C(=N)SC(=Cc2ccc(OCc3ccccc3F)cc2)C1=O | > 1000 | > 2500 | > 1000 | > 1000 | > 2500 | > 1000 | > 1000
